{
  "source": "patent US20040248913A1",
  "about": "“(Pyridinyl and pyrimidyl) trienoic acid derivatives as retinoid x receptor modulators” (priority 2001, published 2004)",
  "key": {"RXRα:RAR heterodimer": {"tested_on": "RXRα:RAR heterodimer", "test": "RXR:RAR heterodimer cotransfection assay in CV-1 cells", "format": "cell-based, human", "conditions": "alone", "text": "In the co-transfection assay, cloned cDNA for one or more IRs (e.g., human RARα, RXRα, or PPARγ), alone or in combination (i.e. for heterodimer assays) under the control of a constitutive promoter (e.g., the SV 40, RSV or CMV promoter) is introduced by transfection (a procedure to introduce exogenous genes into cells) into a background cell substantially devoid of endogenous IRs. These introduced gene(s) direct the recipient cells to make the IR protein(s) of interest. A further gene is also introduced (co-transfected) into the same cells in conjunction with the IR gene(s). This further gene, comprising the cDNA for a reporter protein, such as firefly luciferase (LUC), controlled by an appropriate hormone responsive promoter containing a hormone response element (HRE). This reporter plasmid functions as a reporter for the transcriptional-modulating activity of the target IR(s). Thus, the reporter acts as a surrogate for the products (mRNA then protein) normally expressed by a gene under control of the target receptor(s) and their native hormone(s).\nCompounds of the present invention were also tested for the ability to synergize with an RAR or PPARγ agonist in the context of an RXR heterodimer. […] Efficacy of the compounds of the present invention in the agonist and synergy assays was calculated as the maximum response obtained over the range of the dose response curve relative to the maximum response obtained by the reference agonist. Antagonist efficacy was determined as a function (%) of maximal inhibition.\nRAR suppresses RXR ligand binding and transactivation of typical RXR agonists via allosteric interactions. […] However, when RAR is occupied, typical RXR agonists activate the heterodimer. […] To examine the effects of the compounds of the present invention on the transcriptional properties of the RXR:RAR heterodimer, a heterodimer cotransfection assay as described above was employed."}, "[1]": {"tested_on": "mice transgenic for the human apolipoprotein A-I gene", "test": "Transgenic mice carrying the human apo A-I gene", "format": "in vivo, mouse", "text": "Mice transgenic for the human apolipoprotein A-I gene (obtained from Jackson Laboratory) are used to evaluate PPARγ mediated effects on high density lipoprotein (HDL) cholesterol. The mice are handled as described above for db/db mice, except that they are fed Purina 5001."}, "rodent models of NIDDM": {"tested_on": "rodent models of NIDDM", "test": "Rodent models of NIDDM / Type II Diabetes", "format": "in vivo", "text": "(§1) Rodents that are genetically defective in the leptin pathway are commonly used as animal models of non-insulin dependant diabetes mellitus (NIDDM). db/db mice and ZDF rats develop frank diabetes that progresses to include β-cell failure and the accompanying precipitous drop in plasma insulin levels. […] All three rodent models were used to examine the efficacy of oral dosing with compounds of the invention on diabetes, insulin sensitivity, food consumption and body weight gain.\n(§2) Mice (obtained from Jackson Laboratory), ZDF rats (obtained from Genetic Models Inc.) and fa/fa rats (obtained from either Charles River, or Harlan) are maintained on 12-hour light/dark cycle. Mice (age 28-42 days) are caged in groups of 5-6. Rats (age 7 weeks) are housed individually. All animals are allowed ad libitum access to water and food (Purina 5015 for mice and 5008 for rats). Compounds are administered at the specified doses by oral gavage on the morning of each day of any experiment. Blood samples are obtained 3 hours after dosing from fed animals under anesthesia and collected into heparinized capillary tubes from the tail vein.\nOn the other hand, full antagonists have no effect on glucose, triglycerides or the thyroid status in these same model systems. We have identified a specific subset of rexinoids that maintain the desirable insulin sensitizing activity and eliminate both the suppression of the thyroid axis and triglyceride elevations. These compounds are heterodimer selective modulators of RXR activity. They bind to RXR with high affinity (generally Ki<50 nM) and produce potent synergistic activation of the RXR:PPARγ heterodimer. This synergistic activation of PPARγ in vitro is presumably a major determinant of the antidiabetic efficacy of compounds in vivo."}, "db/db mice": {"tested_on": "db/db mice", "test": "db/db mice, daily oral gavage", "format": "in vivo, mouse", "conditions": "7 week old db/db mice", "text": "as §1, §2"}},
  "data": [
    {"smiles": "CC1=C(/C=C/C(C)=C/C=C/C(C)=C/C(=O)O)C(C)(C)CCC1", "note": "[ATRA, all-trans retinoic acid, reference compound]", "values": [
      {"measurement": "RXR:RAR agonist activity / transactivation alone (in words)", "setting": "RXRα:RAR heterodimer", "value": "strongly transactivate"}
    ]},
    {"smiles": "Cc1cc2c(cc1C1(c3ccc(C(=O)O)cn3)CC1)C(C)(C)CCC2(C)C", "note": "[LG100268]", "values": [
      {"measurement": "Triglycerides", "setting": "[1]", "value": "raises triglycerides"},
      {"measurement": "Blood glucose levels", "setting": "rodent models of NIDDM", "value": "lower blood glucose levels"},
      {"measurement": "Insulin sensitizing activity", "setting": "rodent models of NIDDM", "value": "efficacious insulin sensitizers"},
      {"measurement": "Thyroid hormone axis", "setting": "rodent models of NIDDM", "value": "suppress the thyroid hormone axis"},
      {"measurement": "Triglycerides", "setting": "rodent models of NIDDM", "value": "raise triglycerides"}
    ]},
    {"smiles": "C/C(=C\\c1ccc(C(=O)O)cc1)c1ccc2c(c1)C(C)(C)CCC2(C)C", "note": "[TTNPB, (E)-4-[2-(5,6,7,8-tetrahydro-5,5,8,8-tetramethyl-2-naphthalenyl)-1-propenyl]benzoic acid, reference compound]", "values": [
      {"measurement": "RXR:RAR agonist activity / transactivation alone (in words)", "setting": "RXRα:RAR heterodimer", "value": "strongly transactivate"}
    ]},
    {"smiles": "CN(C)C(=N)N=C(N)N", "note": "[metformin]", "values": [
      {"measurement": "Plasma glucose", "setting": "db/db mice; 300 mg/kg by daily oral gavage", "value": "lowers plasma glucose"},
      {"measurement": "Efficacy on plasma glucose over time", "setting": "db/db mice; 300 mg/kg daily, 3 weeks subsequent to first week", "value": "efficacy of metformin decreases"}
    ]}
  ]
}
